# Patent publication US20070191422A1 (priority 2003, published 2007)
# Target: α7 nAChR subtype (Rattus norvegicus, UniProt Q05941)
# Type: binding
# α7 nAChR subtype, sequence (Q05941 23-502 limits assumed): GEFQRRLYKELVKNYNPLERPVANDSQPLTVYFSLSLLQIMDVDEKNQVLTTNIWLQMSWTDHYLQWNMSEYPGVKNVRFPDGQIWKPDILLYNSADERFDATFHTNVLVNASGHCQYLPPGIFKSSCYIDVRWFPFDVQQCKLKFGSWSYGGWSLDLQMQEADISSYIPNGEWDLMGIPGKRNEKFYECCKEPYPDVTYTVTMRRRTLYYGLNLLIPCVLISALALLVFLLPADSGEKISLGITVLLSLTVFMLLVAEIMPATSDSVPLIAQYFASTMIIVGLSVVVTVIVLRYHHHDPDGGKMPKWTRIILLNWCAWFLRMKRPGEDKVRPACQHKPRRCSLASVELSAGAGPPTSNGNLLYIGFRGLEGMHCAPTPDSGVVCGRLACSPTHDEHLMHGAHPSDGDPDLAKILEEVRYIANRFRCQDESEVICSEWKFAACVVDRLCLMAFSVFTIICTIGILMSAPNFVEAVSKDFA
substance,measurement,value
^125I-α—Bungarotoxin [^125I-α-BTX],Kd,1.67 nM
